Data published in ChEMBL document CHEMBL5335821, “Antiviral Protein-Protein Interaction Inhibitors” (J Med Chem, 2024).
Where a SMILES comes first, the peptide text is derived from it.

Experiments:
Ebolavirus [1] = test: Antiviral activity against Ebola virus infected in human HeLa cells assessed as reduction in viral cytopathic effect; assay type: functional, organism-based; details: Orthoebolavirus
dengue virus type 2 = test: Antiviral activity agaisnt DENV-2 strain New Guinea C infected with hamster BHK-21 cells assessed as reduction in viral growth; assay type: functional, organism-based
Hepatitis C virus [2] = test: Antiviral activity against HCV infected in human Huh-7.5.1 cells assessed as reduction in viral infection incubated for 48 hrs; assay type: functional, organism-based, Hepacivirus hominis; details: Huh-7.5.1, 48 h
Hepatitis C virus [3] = test: Antiviral activity against HCV infected in Huh-7 assessed as reduction in viral RNA replication at 0.5 nM relative to control; assay type: functional, Hepacivirus hominis; set-up: scale not given: the % may be the effect or the level left
Hepatitis C virus [4] = test: Antiviral activity against HCV infected in human Huh-7 cells assessed as reduction in viral replication; assay type: functional, organism-based, Hepacivirus hominis
Chikungunya virus [5] = test: Antiviral activity against CHIKV infected in Vero 76 cells assessed as reduction in cytopathic effect; assay type: functional, organism-based
SARS-CoV-2 = test: Antiviral activity against SARS-CoV-2; assay type: functional, organism-based, Severe acute respiratory syndrome coronavirus 2
[6] = biological target: Spike glycoprotein/Angiotensin-converting enzyme 2 (Severe acute respiratory syndrome coronavirus 2, UniProt P0DTC2+Q9BYF1); test: Inhibition of SARS-CoV-2 spike protein RBD- human ACE2 interaction incubated for 1 hr by colorimetric ELISA assay
Chain of Spike glycoprotein/Angiotensin-converting enzyme 2 (Q9BYF1 18-805 limits assumed, other chains not shown): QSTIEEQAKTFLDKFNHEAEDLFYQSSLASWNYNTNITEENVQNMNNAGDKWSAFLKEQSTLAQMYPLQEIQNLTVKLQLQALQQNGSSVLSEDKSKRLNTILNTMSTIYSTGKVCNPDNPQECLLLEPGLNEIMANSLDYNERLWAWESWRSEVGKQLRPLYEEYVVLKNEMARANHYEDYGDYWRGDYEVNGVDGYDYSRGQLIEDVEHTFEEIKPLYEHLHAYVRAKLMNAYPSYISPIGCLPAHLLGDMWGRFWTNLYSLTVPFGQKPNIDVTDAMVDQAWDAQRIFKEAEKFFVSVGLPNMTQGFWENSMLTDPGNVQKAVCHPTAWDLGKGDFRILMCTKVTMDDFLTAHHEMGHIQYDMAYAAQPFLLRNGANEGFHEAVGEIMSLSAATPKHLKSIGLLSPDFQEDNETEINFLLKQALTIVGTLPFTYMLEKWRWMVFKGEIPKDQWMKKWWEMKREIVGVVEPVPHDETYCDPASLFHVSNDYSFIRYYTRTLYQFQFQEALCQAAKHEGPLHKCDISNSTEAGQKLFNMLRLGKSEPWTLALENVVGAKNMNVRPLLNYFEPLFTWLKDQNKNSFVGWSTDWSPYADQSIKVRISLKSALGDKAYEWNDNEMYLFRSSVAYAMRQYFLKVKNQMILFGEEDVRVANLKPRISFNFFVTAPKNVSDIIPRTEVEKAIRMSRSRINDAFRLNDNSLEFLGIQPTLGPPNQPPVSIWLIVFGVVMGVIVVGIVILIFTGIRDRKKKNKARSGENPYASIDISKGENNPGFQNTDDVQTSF

[7] = biological target: Replicase polyprotein 1ab (Severe acute respiratory syndrome coronavirus 2, UniProt P0DTD1); test: Inhibition of SARS-CoV-2 main protease
[8] = Inhibition of MERS-CoV Main protease; set-up: species or system Middle East respiratory syndrome-related coronavirus
[9] = biological target: Replicase polyprotein 1ab (Severe acute respiratory syndrome-related coronavirus, UniProt P0C6X7); test: Inhibition of SARS-CoV-1 Main Protease
[10] = Inhibition of HCV RNA; assay type: functional, Hepacivirus hominis
Hepatitis C virus [11] = test: Antiviral activity against HCV infected in human Huh7.5.1 cells assessed as decrease in viral infection; assay type: functional, organism-based, Hepacivirus hominis; details: Huh-7.5.1
Hepatitis C virus [12] = test: Antiviral activity against HCV infected in Huh-7 assessed as inhibition of HCV RNA replication at 5 nM relative to control; assay type: functional, Hepacivirus hominis; set-up: scale not given: the % may be the effect or the level left
Chikungunya virus [13] = test: Antiviral activity against CHIKV infected in HEK293T cells; assay type: functional, organism-based; details: HEK-293T
Ebolavirus [14] = test: Antiviral activity against pseudotyped Ebola virus infected in HeLa cells assessed as reduction in viral infection incubated for 48 hrs by firefly luciferase assay; assay type: functional, organism-based; details: Orthoebolavirus

`O=C(CC12CC3CC(CC(C3)C1)C2)NCC(=O)N1CCN(Cc2ccccc2)CC1` gave an IC50 (Ebolavirus [1]) of 1600 nM.

`Clc1ccc(-c2ccc(-c3nc(NCc4cccnc4)nc4ccccc34)s2)cc1` showed an EC50 (dengue virus type 2) of 68 nM.

`CC[C@H](C)[C@H](NC(=O)[C@H](C)NC(=O)[C@H](Cc1c[nH]c2ccccc12)NC(=O)[C@H](CO)NC(=O)[C@H](C)N)C(=O)N[C@@H](CCCCN)C(=O)N[C@@H](Cc1c[nH]c2ccccc12)C(=O)N[C@@H](CCC(=O)O)C(=O)N[C@@H](Cc1ccc(O)cc1)C(=O)N[C@H](C(=O)N[C@H](C(=O)N[C@@H](CC(C)C)C(=O)N[C@@H](CC(C)C)C(=O)N[C@@H](Cc1ccccc1)C(=O)N[C@@H](CC(C)C)C(=O)N[C@@H](CC(C)C)C(=O)O)C(C)C)C(C)C` (H-ASWAIKWEYVVLLFLL-OH) gave an IC50 (Hepatitis C virus [2]) of 51000 nM and an Activity (Hepatitis C virus [3]) of 60%.

`C[C@H]1O[C@@H](O[C@H]2CC[C@@]3(C)[C@@H](CC[C@]4(C)[C@@H]3C=CC3=C5CC(C)(C)CC[C@]5(CO)[C@H](O)C[C@]34C)[C@]2(C)CO)[C@H](O)[C@@H](O[C@@H]2O[C@H](CO)[C@@H](O)[C@H](O)[C@H]2O)[C@H]1O` gave an EC50 (Hepatitis C virus [4]) of 20700 nM.

In the case of `Cc1ccc(C(=O)Nc2ccc(S(=O)(=O)O)c3cc(S(=O)(=O)O)cc(S(=O)(=O)O)c23)cc1NC(=O)c1cccc(NC(=O)Nc2cccc(C(=O)Nc3cc(C(=O)Nc4ccc(S(=O)(=O)O)c5cc(S(=O)(=O)O)cc(S(=O)(=O)O)c45)ccc3C)c2)c1` [SURAMIN], the IC50 (Chikungunya virus [5]) is reported as 5680 nM.

With `COc1ccc2cc3[n+](cc2c1OC)CCc1cc2c(cc1-3)OCO2` [BERBERINE] the EC50 (Hepatitis C virus [4]) was 7870 nM.

In the case of `CCOC(=O)c1c(CSc2ccccc2)n(C)c2cc(Br)c(O)c(CN(C)C)c12` [UMIFENOVIR], the IC50 (Chikungunya virus [5]) is reported as < 20900 nM.

In the case of IVERMECTIN, the EC50 (SARS-CoV-2) is reported as 4110 nM.

`CN1C(=O)c2ccccc2[S+]([O-])c2cc([N+](=O)[O-])ccc2S1(=O)=O` (stereo not given) showed an IC50 [6] of 670 nM.

Work on `Cc1cc2nc3s/c(=C/c4ccc(-c5cccc(C(=O)O)c5)o4)c(=O)n3c2cc1C` yielded an IC50 [7] of 55 nM, an IC50 [8] of 75 nM and an IC50 [9] of 59 nM.

Work on `COc1c(NC(=O)C(=O)c2ccc(OCCN3CCOCC3)c3ccccc23)cc(C(C)(C)C)cc1NS(C)(=O)=O` [ITX-5061 FREE BASE] yielded an EC50 (Hepatitis C virus [4]) of 0.1 nM.

Compound `COC(=O)c1ccc(COc2ccccc2CN2CCN(C(=O)CNC(=O)CC34CC5CC(CC(C5)C3)C4)CC2)cc1` has an IC50 (Ebolavirus [1]) of 130 nM.

`COc1cc(C[C@@]2(O)C(=O)OC[C@@H]2Cc2ccc(OC)c(OC)c2)ccc1O` showed an IC50 [10] of 670 nM.

In the case of `CC(C)[C@H](NC(=O)[C@H](Cc1c[nH]c2ccccc12)NC(=O)[C@@H](NC(=O)[C@H](C)N)[C@@H](C)O)C(=O)N[C@@H](CS)C(=O)NCC(=O)N1CCC[C@H]1C(=O)N[C@@H](CS)C(=O)N[C@H](C(=O)O)[C@@H](C)O` (H-ATWVCGPCT-OH), the IC50 (Hepatitis C virus [11]) is reported as 5500 nM.

Work on `CSCC[C@H](NC(=O)[C@H](Cc1c[nH]c2ccccc12)NC(=O)[C@@H](NC(=O)[C@H](CS)NC(=O)CNC(=O)[C@H](Cc1ccccc1)NC(=O)[C@H](Cc1c[nH]c2ccccc12)NC(=O)[C@H](CO)NC(=O)CNC(=O)[C@@H](N)CCC(N)=O)[C@@H](C)O)C(=O)N[C@@H](CC(N)=O)C(=O)N[C@@H](CO)C(=O)N[C@H](C(=O)NCC(=O)N[C@@H](Cc1ccccc1)C(=O)O)[C@@H](C)O` yielded an Activity (Hepatitis C virus [12]) of 50%.

In the case of `COc1cc(OC)c2c(c1)O[C@@]1(c3ccc(Br)cc3)[C@H](c3ccccc3)C[C@@H](O)[C@@]21O`, the IC50 (Chikungunya virus [13]) is reported as 22.4 nM.

For `FC(C1=Nc2ccccc2N=C(c2ccccc2)C1)C(F)(F)F` (stereo not given), the IC50 (Ebolavirus [14]) was 10000 nM.
